Target: T1, eugenol oxidase (EUGO) (Rhodococcus jostii, UniProt Q0SBK1)
T1 sequence (Q0SBK1 1-526): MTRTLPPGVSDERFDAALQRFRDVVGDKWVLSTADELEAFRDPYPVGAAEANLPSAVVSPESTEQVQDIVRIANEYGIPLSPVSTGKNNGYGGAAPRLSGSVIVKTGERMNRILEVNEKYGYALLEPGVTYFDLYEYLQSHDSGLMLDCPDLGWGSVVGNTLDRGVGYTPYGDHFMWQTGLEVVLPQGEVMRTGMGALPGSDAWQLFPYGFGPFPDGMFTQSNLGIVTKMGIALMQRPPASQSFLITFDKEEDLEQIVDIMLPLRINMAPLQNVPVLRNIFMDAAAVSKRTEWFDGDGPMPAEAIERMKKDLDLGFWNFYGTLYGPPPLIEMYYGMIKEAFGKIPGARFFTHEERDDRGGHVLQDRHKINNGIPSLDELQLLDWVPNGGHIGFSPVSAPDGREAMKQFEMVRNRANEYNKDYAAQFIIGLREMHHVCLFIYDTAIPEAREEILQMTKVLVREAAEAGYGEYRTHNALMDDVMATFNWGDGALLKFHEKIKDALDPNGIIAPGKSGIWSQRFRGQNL
Assay: steady-state kinetics
Type: biochemical

A Km of 0.77 µM was found for `C=CCc1cc(OC)c(O)c(OC)c1` [compound 1, 2,6-dimethoxy-4-allylphenol] in this work.

Reference: PMC5989697 (ACS Catalysis, 2018)
